What is called IC50 is the point on the concentration scale where inhibition reaches its midpoint.

The target of the assay is T1, IRE1α (Homo sapiens, UniProt O75460).
T1 construct: gene ERN1
As to the kind of experiment: ADP-Glo luminescent kinase assay with purified IRE1. The class given is biochemical. On the technique in general: In ADP-Glo the light output rises with the ADP produced.

T1 sequence (O75460 19-977): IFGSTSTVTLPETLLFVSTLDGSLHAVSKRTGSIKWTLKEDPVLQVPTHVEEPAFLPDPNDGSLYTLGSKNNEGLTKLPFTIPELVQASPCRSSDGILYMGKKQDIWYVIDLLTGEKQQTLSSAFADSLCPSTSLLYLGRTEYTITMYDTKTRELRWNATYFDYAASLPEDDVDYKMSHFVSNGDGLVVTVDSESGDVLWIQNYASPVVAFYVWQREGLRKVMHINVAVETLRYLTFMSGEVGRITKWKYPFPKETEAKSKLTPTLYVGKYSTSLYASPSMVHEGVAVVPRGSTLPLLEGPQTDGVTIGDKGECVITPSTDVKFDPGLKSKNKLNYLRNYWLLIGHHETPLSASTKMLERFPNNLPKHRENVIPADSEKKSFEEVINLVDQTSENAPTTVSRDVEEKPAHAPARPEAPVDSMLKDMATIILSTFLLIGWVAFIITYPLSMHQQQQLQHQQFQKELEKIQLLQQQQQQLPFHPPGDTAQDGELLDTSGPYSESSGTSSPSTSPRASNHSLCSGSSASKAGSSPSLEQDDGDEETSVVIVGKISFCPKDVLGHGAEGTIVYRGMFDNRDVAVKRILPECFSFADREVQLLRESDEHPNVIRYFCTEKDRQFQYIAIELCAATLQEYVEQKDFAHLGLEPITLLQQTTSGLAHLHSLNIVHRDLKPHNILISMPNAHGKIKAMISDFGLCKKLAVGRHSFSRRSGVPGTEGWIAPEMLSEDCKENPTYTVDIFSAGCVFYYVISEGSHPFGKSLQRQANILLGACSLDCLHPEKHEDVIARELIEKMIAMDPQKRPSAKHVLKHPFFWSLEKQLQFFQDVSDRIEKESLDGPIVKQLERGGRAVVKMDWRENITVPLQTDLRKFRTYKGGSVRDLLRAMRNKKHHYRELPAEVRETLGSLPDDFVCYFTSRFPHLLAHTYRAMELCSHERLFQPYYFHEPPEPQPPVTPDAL

Turning to `Cc1cc(=O)oc2c(C=O)c(O)ccc12` [4µ8C, 7-Hydroxy-4-methyl-2-oxo-2H-chromene-8-carbaldehyde], inhibition was half-maximal at 31.2 µM (IC50).
